Tests used:
Details in all cases: banded MIC grade
Aspergillus fumigatus = assay: Minimum inhibitory concentration, YAG medium; type: cell-based
In short: (§1)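 Broth microdilution in YAG medium; inoculum 1-2×10^4 cfu/mL; compound 50-0.05 mg/L in doubling steps, from DMSO stock. 24 h, 35° C. Read OD 485 nm; MIC = lowest conc. inhibiting growth >70% vs no-drug control, in mg/L.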

A. fumigatus 210 = assay: Minimum inhibitory concentration, YAG medium; type: cell-based, Aspergillus fumigatus
In short: as §1

A. terreus 49 = assay: Minimum inhibitory concentration, YAG medium; type: cell-based, Aspergillus terreus
In short: (§2)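 Compound from a 5 mg/mL DMSO stock was further diluted in sterile water, then serially doubled in water and plated with Aspergillus spp. spores. After 24 hrs at 35° C, growth was monitored by optical density at 485 nm; MICs are given in mg/L.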

Aspergillus flavus = assay: Minimum inhibitory concentration, YAG medium; type: cell-based
In short: as §2

Aspergillus niger = assay: Minimum inhibitory concentration, YAG medium; type: cell-based
In short: as §2

Aspergillus terreus = assay: Minimum inhibitory concentration, YAG medium; type: cell-based
In short: as §2

C. albicans = assay: Minimum inhibitory concentration, RPMI medium; type: cell-based
In short: (§3)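 Compound stock was made at 5 mg/mL in DMSO, diluted in sterile water and serially doubled in water, then tested in RPMI 1640 medium. Plates were incubated 24-48 hrs at 35° C, and growth was scored as optical density at 485 nm.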

C. parapsilosis = assay: Minimum inhibitory concentration, RPMI medium; type: cell-based
In short: as §3

C. tropicalis = assay: Minimum inhibitory concentration, RPMI medium; type: cell-based
In short: as §3

| SMILES | MIC grade, A. FUMIGATUS, YAG media (Aspergillus fumigatus) | MIC grade, A. FUMIGATUS 210, YAG media (A. fumigatus 210) | MIC grade, A. TERREUS 49, YAG media (A. terreus 49) | MIC grade, A. FLAVUS, YAG media (Aspergillus flavus) | MIC grade, A. NIGER, YAG media (Aspergillus niger) | MIC grade, A. TERREUS, YAG media (Aspergillus terreus) | MIC grade, C. ALBICANS, RPMI media (C. albicans) | MIC grade, C. PARAPSILOSIS, RPMI media (C. parapsilosis) | MIC grade, C. TROPICALIS, RPMI media (C. tropicalis) |
| --- | --- | --- | --- | --- | --- | --- | --- | --- | --- |
| NC1=NN=C(CCOCc2ccccc2)CS1 | 3 (3: 0.2-1 mg/L) | 2 (2: 1-5 mg/L) | 3 (3: 0.2-1 mg/L) | 3 (3: 0.2-1 mg/L) | 3 (3: 0.2-1 mg/L) | 3 (3: 0.2-1 mg/L) | 1 (1: ≥20 mg/L) | 3 (3: 1-5 mg/L) | 1 (1: ≥20 mg/L) |
| COCCCC1=NN=C(N)SC1 | 4 (4: <0.2 mg/L) | 4 (4: <0.2 mg/L) | 4 (4: <0.2 mg/L) | 4 (4: <0.2 mg/L) | 4 (4: <0.2 mg/L) | 3 (3: 0.2-1 mg/L) | 3 (3: 1-5 mg/L) | 3 (3: 1-5 mg/L) | 2 (2: 5-20 mg/L) |
| Cc1cc(C)cc(C2=NN=C(N)SC2)c1 | 1 (1: ≥5 mg/L) | 2 (2: 1-5 mg/L) | 1 (1: ≥5 mg/L) | 1 (1: ≥5 mg/L) | 2 (2: 1-5 mg/L) | 1 (1: ≥5 mg/L) | 1 (1: ≥20 mg/L) | 1 (1: ≥20 mg/L) | 1 (1: ≥20 mg/L) |
| NC1=NN=C(c2ccc(C3CCCCC3)cc2)CS1 | 1 (1: ≥5 mg/L) | 1 (1: ≥5 mg/L) | 1 (1: ≥5 mg/L) | 1 (1: ≥5 mg/L) | 1 (1: ≥5 mg/L) | 1 (1: ≥5 mg/L) | 1 (1: ≥20 mg/L) | 1 (1: ≥20 mg/L) | 1 (1: ≥20 mg/L) |
| CC(C)c1ccc(C2=NN=C(N)SC2)cc1 | 1 (1: ≥5 mg/L) | 1 (1: ≥5 mg/L) | 2 (2: 1-5 mg/L) | 1 (1: ≥5 mg/L) | 1 (1: ≥5 mg/L) | 2 (2: 1-5 mg/L) | 1 (1: ≥20 mg/L) | 1 (1: ≥20 mg/L) | 1 (1: ≥20 mg/L) |
| NC1=NN=C(CCCCc2ccccc2)CS1 | 4 (4: <0.2 mg/L) | 4 (4: <0.2 mg/L) | 4 (4: <0.2 mg/L) | 4 (4: <0.2 mg/L) | 4 (4: <0.2 mg/L) | 4 (4: <0.2 mg/L) | 2 (2: 5-20 mg/L) | 4 (4: <1 mg/L) | 2 (2: 5-20 mg/L) |
| CCCc1ccc(C2=NN=C(N)SC2)cc1 | 3 (3: 0.2-1 mg/L) | 3 (3: 0.2-1 mg/L) | 3 (3: 0.2-1 mg/L) | 2 (2: 1-5 mg/L) | 2 (2: 1-5 mg/L) | 3 (3: 0.2-1 mg/L) | 1 (1: ≥20 mg/L) | 1 (1: ≥20 mg/L) | 1 (1: ≥20 mg/L) |

Reference: patent US20180201592A1, “2-AMINO-1,3,4-THIADIAZINE AND 2-AMINO-1,3,4-OXADIAZINE BASED ANTIFUNGAL AGENTS” (F2G Limited, priority 2015, published 2018)
